# PMC4210713, “Intragenic antimicrobial peptides from Theobroma cacao” (BMC Proceedings, 2014)
# Where no end group is shown, it is not given here.
# System: Candida albicans ATCC 90028
# Conditions: C. albicans ATCC 90028; broth microdilution, CLSI M27-A3; tested at 256 μM-0.5 μM; preliminary results
substance,measurement,value
GFKDLLKGAAKALVKTVLF-NH2 [Ascaphin-8],MIC (minimum inhibitory concentration),8 µM
